In patent US10870872B2, “Enzymatic nucleic acid synthesis” (President and Fellows of Harvard College, priority 2016, dated 2020):

Legend:
TdT [1] = target: T1, TdT (Homo sapiens, UniProt P04053); test: Chemical control of TdT extension by Apyrase on immobilized initiator oligo (PCR, agarose gel); type: biochemical; conditions: 0.001 U/μL Apyrase, 1 U/μL TdT, 4 minutes at room temperature
Protocol: According to an exemplary protocol of the present disclosure, an initiator oligonucleotide was first immobilized onto a surface, for example with the use of a 5 prime modified oligonucleotide onto aldehyde functionalized glass slides. After tethering the initiator to a solid support, the surface was treated to neutralize the chemical reactive groups such as aldehydes in this case, and to increase hydrophobicity.
Dilutions of nucleotides in solvents such as water or ethanol of the following concentration and types were prepared:
Each of these nucleotides were printed on an oligo spot with a liquid handling robot followed by printing of the enzymatic mix comprising TdT (Terminal deoxynucleotidyl transferase) and Apyrase. […]
Each of the synthesized DNA strands were released off the solid-support surface, in this exemplary embodiment, enzymatically, by the use of USER (Uracil-Specific Excision Reagent) enzyme which cleaves the uracils that are near the 5 prime distal end of the initial initiator oligonucleotide. These strands were subsequently PCR amplified and the number of synthesized nucleotides were evaluated by two methods: electrophoresis on agarose or PAGE gels for cursory bulk analysis and sequenced with next-generation sequencing platforms such as Illumina, Pacific Bioscience, and/or Oxford Nanopore for quantitative single-molecule analysis. […]

TdT [2] = target: T1, TdT; test: Screen of nucleotide analogue substrates for TdT-based DNA synthesis (NPU formulation with Apyrase); type: biochemical; conditions: for efficiency as substrate of TdT versus natural counterpart: analogues more positively charged than natural counterparts; for behavior with respect to TdT-based DNA synthesis (extension efficiency, rate, extension length distribution): natural nucleotides
Text: In the general scheme of the presently disclosed methods, the distribution of extension length by TdT is important to ensure efficient and reliable encoding of information into DNA. […] The following nucleotide analogues with the NPU formulation which included Apyrase were explored.

T1 sequence (P04053 whole entry, species assumed): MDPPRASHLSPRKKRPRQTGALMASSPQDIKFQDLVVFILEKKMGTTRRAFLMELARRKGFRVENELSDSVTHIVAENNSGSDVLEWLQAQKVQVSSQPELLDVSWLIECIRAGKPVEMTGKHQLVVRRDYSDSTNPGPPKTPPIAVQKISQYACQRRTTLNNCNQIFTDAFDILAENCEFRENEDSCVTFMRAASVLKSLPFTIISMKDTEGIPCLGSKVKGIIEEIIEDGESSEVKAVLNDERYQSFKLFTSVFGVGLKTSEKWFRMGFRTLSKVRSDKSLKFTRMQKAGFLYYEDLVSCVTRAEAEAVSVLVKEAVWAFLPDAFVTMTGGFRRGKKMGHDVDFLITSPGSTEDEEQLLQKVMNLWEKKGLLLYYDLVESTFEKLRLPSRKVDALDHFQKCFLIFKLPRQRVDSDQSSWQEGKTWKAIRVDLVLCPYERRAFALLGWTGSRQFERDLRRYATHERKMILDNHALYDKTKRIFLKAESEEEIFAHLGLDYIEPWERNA

| efficiency as substrate of TdT versus natural counterpart (TdT [2]) | behavior with respect to TdT-based DNA synthesis (extension efficiency, rate, extension length distribution) (TdT [2]) | Compound | also measured |
| --- | --- | --- | --- |
|  |  | Apyrase | effect on average amount of extension by TdT (TdT [1]): effectively limited the average amount of extension by TdT |
| far more efficient substrates of TdT |  | NCC#Cc1cn(C2CC(O)C(COP(=O)(O)OP(=O)(O)OP(=O)(O)O)O2)c(=O)[nH]c1=O (stereo not drawn) [5-Propargylamino-dUTP] |  |
|  | poorest behavior | Nc1ncnc2c1ncn2[C@H]1C[C@H](O)[C@@H](COP(=O)(O)OP(=O)(O)OP(=O)(O)O)O1 [dATP] |  |
|  | poorest behavior | Cc1cn([C@H]2C[C@H](O)[C@@H](COP(=O)(O)OP(=O)(O)OP(=O)(O)O)O2)c(=O)[nH]c1=O [dTTP] |  |
|  | most optimal behavior | Nc1ccn([C@H]2C[C@H](O)[C@@H](COP(=O)(O)OP(=O)(O)OP(=O)(O)O)O2)c(=O)n1 [dCTP] |  |
| far more efficient substrates of TdT |  | NC/C=C/c1cn(C2CC(O)C(COP(=O)(O)OP(=O)(O)OP(=O)(O)O)O2)c(=O)[nH]c1=O (stereo not drawn) [5-Aminoallyl-dUTP] |  |
